Test results from US20200215082A1, “Dihydrotestosterone and Dihydrotestosterone Derivatives and Promoters in the Treatment of Cancer” (Tyme, Inc., priority 2016, published 2020).

Tested on: cancerous tumor of the distal radius
Assay: Treatment of a canine with a cancerous tumor of the distal radius (X-ray)
Format: in vivo
Conditions: after stanozolol administration, FIG. 1 before, FIG. 2 after, dose and route not given
Description: FIG. 1 is an X-ray depicting a cancerous tumor on the distal radius of a canine.
FIG. 2 is an X-ray depicting calcification of the cancerous tumor shown in FIG. 1 after treatment according to a preferred aspect of the disclosure.
A canine presenting with a cancerous tumor of the distal radius (see FIG. 1) was administered stanozolol.

stanozolol
calcification of the cancerous tumor: the cancerous tumor calcified
